Laboratory results: patent US20020170080A1, “Alpha-tocopherol transfer protein knockout animals” (The Regents of the University of California, priority 2000, published 2002)

Assays:
femoral artery lesions = conditions: human clinical trial; cited from earlier work
[1] = tested on: abdominal aortas or iliac arteries; conditions: nonhuman primates; cited from earlier work
apo E^−/− mice = conditions: apo E−/− mice fed a chow diet, vitamin E supplementation; cited from earlier work
Ttpa^−/− females = experiment: Vitamin E supplementation of the diet and the fertility defect of Ttpa−/− female mice; type: in vivo, mouse; conditions: vitamin E supplementation 1000 IU/kg of diet, data not shown
Source text: Ttpa^−/− mice were generally healthy. Offspring from heterozygous intercrosses were born with the expected Mendelian distribution. Ttpa^−/− mice at 18 months of age had no obvious signs of neurological disease. In contrast, humans with α-TTP gene defects develop ataxia with vitamin E deficiency by the first decade of life (Sokol et al. (1988) J. Lab. Clin. Med. 111: 548-559; Ouahchi et al. (1995) Nat. Genet. 9: 141-145; Hentati et al. (1996) Ann. Neurol. 39: 295-300). […] Ttpa^−/− males had no obvious impairment in fertility.

Row | Compound | progression of femoral artery lesions (femoral artery lesions) | lesion development in abdominal aortas or iliac arteries [1] | levels of atherosclerosis (apo E^−/− mice) | effect on fertility defect (Ttpa^−/− females)
1 | CC(C)(Sc1cc(C(C)(C)C)c(O)c(C(C)(C)C)c1)Sc1cc(C(C)(C)C)c(O)c(C(C)(C)C)c1 [probucol] | did not prevent progression of femoral artery lesions | did not prevent | – | –
2 | vitamin E | – | – | decreased levels of atherosclerosis | completely reversed the fertility defect
